Measured values taken from US20260365670A1, “EGFR INHIBITORS AND USES THEREOF” (DIZAL (JIANGSU) PHARMACEUTICAL CO., LTD., priority 2022, published 2026).
Like-named read-outs stand apart in the source and are kept apart here.

Key:
[1] = tested on: Ba/F3 cells expressing EGFR mutations; assay: Cell proliferation assay, Ba/F3 cells expressing EGFR mutations (CellTiter-Glo, 72 hours); type: cell-based; conditions: CellTiter-Glo
Procedure, shortened: (§1)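 Seed Ba/F3 at 5000 cells/well and PC-9 at 500 cells/well (10% FBS RPMI1640); incubate overnight; add compound dilution series; read a G0 plate; incubate; read G3; GI50 from best-fit curve.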

EGFR L858R/T790M = target: T1, EGFR L858R/T790M (Homo sapiens, UniProt P00533, L858R/T790M); assay: Inhibition of EGFR L858R/T790M biochemical enzymatic activity (HTRF); conditions: EGFR L858R-T790M, 1 mM ATP, 1 h, room temperature, read-out: IC50 (nM) @L858R-T790M
T1 construct: purchased Carna Bio
Procedure, shortened: (§2)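 1 mM ATP, 1 μM biotin-TK peptide, 5 mM MgCl2, 1 mM MnCl2, 0.01% CHAPS, 1 mM DTT, 0.5% DMSO; 1 h RT; EDTA stop; HTRF 665/615 nm; IC50 via 4PL.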

PC-9 = assay: Cell proliferation assay, PC-9 cells (CellTiter-Glo, 72 hours); type: cell-based; conditions: PC9 cells, CellTiter-Glo, read-out: PC9 GI50
Procedure, shortened: as §1

EGFR wild type = target: T2, EGFR wild type (Homo sapiens, UniProt P00533); assay: Inhibition of EGFR wild type biochemical enzymatic activity (HTRF); conditions: EGFR WT, 1 mM ATP, 1 h, room temperature, read-out: IC50 (nM) @WT
T2 construct: purchased Carna Bio
T2 sequence (P00533 25-1210): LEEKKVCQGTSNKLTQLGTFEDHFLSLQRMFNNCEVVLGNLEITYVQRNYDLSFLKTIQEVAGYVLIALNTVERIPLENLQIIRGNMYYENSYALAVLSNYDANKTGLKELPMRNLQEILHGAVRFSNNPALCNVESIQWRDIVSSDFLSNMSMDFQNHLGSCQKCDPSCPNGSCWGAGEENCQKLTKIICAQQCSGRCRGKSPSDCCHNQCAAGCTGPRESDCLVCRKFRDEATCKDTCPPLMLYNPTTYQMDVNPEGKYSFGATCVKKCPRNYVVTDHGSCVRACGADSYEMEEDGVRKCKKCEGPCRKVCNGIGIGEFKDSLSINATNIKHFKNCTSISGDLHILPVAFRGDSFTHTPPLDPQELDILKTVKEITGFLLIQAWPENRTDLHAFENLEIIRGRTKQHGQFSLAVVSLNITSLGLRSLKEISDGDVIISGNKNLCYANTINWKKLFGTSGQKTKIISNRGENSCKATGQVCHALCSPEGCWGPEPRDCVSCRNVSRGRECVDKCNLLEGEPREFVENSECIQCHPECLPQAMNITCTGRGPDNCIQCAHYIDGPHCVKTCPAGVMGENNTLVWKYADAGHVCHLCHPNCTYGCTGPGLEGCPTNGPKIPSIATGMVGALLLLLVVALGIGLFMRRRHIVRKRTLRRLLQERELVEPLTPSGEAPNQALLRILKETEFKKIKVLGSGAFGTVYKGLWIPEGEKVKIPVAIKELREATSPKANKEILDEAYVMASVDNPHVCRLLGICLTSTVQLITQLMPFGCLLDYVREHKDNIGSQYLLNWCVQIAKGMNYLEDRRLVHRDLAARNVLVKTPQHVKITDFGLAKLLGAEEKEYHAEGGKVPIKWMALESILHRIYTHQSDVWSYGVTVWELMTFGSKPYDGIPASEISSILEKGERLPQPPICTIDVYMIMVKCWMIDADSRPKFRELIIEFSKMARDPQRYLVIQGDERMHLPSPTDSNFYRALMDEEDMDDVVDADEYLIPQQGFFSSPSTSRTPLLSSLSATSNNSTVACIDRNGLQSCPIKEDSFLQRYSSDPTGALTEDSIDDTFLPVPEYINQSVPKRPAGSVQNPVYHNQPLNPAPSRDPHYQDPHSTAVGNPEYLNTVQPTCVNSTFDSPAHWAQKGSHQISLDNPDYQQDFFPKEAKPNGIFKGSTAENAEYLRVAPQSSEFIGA
Procedure, shortened: as §2

EGFR[T790M/C797S/L858R] = target: T3, EGFR[T790M/C797S/L858R] (Homo sapiens, UniProt P00533, C797S/L858R/T790M); assay: Inhibition of EGFR[T790M/C797S/L858R] biochemical enzymatic activity (HTRF); conditions: EGFR T790M-C797S-L858R, 1 mM ATP, 1 h, room temperature, read-out: IC50 (nM) @T790M- C797S - L858R
T3 construct: purchased Carna Bio
T3 sequence (P00533 25-1210 T790M/C797S/L858R): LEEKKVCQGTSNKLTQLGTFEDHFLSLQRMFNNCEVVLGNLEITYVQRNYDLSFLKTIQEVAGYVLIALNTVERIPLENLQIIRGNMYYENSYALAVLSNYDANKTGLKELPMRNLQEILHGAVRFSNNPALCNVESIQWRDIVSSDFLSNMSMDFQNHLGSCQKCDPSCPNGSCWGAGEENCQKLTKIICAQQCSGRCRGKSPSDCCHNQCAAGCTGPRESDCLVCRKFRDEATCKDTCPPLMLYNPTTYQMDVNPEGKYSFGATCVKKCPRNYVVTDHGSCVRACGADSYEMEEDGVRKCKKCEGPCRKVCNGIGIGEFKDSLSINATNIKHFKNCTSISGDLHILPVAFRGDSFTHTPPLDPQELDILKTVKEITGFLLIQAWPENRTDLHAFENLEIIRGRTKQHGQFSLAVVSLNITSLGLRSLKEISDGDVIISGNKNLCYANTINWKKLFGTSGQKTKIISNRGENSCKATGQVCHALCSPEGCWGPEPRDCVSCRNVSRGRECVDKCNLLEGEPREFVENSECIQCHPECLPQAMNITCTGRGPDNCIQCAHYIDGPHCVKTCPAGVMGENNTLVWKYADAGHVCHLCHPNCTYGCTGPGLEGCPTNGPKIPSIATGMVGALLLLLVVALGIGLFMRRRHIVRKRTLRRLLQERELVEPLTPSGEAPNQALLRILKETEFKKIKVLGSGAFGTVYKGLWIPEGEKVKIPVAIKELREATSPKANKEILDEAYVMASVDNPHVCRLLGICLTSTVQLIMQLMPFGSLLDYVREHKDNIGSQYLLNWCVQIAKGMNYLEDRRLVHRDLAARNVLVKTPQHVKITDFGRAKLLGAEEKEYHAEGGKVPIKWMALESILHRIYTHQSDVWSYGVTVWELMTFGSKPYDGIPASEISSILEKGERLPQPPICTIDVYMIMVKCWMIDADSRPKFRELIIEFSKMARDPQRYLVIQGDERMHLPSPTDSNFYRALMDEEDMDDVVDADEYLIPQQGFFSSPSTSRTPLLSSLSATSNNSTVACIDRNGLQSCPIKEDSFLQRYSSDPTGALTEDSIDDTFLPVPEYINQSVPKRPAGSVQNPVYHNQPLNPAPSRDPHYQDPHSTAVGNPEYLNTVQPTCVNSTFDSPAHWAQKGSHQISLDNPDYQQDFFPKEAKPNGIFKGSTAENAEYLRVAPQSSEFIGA
Procedure, shortened: as §2

EGFR Exon19Del = target: T4, EGFR Exon19Del (Homo sapiens, UniProt P00533, DEL746-750); assay: Inhibition of EGFR Exon19Del biochemical enzymatic activity (HTRF); conditions: EGFR Del19, 1 mM ATP, 1 h, room temperature, read-out: IC50 @Del19
T4 construct: purchased Carna Bio
Procedure, shortened: as §2

EGFR (C797S L858R) = target: T5, EGFR (C797S L858R) (Homo sapiens, UniProt P00533, C797S/L858R); assay: Inhibition of EGFR (C797S L858R) biochemical enzymatic activity (HTRF); conditions: EGFR L858-C797S, 1 mM ATP, 1 h, room temperature, read-out: IC50 (nM) @L858-C797S
T5 construct: purchased signalchem
Procedure, shortened: as §2

EGFR (d746-750 C797S) = target: T6, EGFR (d746-750 C797S) (Homo sapiens, UniProt P00533, C797S/DEL746-750); assay: Inhibition of EGFR (d746-750 C797S) biochemical enzymatic activity (HTRF); conditions: EGFR Del19-C797S, 1 mM ATP, 1 h, room temperature, read-out: IC50 (nM) @Del19-C797S
T6 construct: purchased signalchem
T6 sequence (P00533 with tags, fused parts or gaps DEL746-750/C797S limits assumed): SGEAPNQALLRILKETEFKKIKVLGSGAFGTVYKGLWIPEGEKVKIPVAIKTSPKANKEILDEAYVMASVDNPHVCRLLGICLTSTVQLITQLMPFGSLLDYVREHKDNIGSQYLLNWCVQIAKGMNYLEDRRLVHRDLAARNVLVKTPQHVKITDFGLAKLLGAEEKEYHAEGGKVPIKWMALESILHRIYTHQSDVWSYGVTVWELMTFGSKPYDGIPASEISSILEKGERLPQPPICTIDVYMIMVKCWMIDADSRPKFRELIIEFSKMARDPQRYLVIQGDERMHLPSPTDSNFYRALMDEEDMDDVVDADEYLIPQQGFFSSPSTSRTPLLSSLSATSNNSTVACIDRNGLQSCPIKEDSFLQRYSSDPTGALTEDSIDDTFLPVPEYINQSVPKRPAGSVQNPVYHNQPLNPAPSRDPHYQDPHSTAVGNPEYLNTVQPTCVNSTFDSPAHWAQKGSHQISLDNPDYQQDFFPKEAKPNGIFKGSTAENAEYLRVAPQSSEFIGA
Procedure, shortened: as §2

[2] = target: T7, EGFR[T790M/C797S/d746-750] (Homo sapiens, UniProt P00533, C797S/DEL746-750/T790M); assay: Inhibition of EGFR[T790M/C797S/d746-750] biochemical enzymatic activity (HTRF); conditions: EGFR T790M-C797S-Del19, 1 mM ATP, 1 h, room temperature, read-out: IC50 (nM) @T790M - C797S - Del19
T7 construct: purchased Carna Bio
Procedure, shortened: as §2

EGFR Exon19Del/T790M = target: T8, EGFR Exon19Del/T790M (Homo sapiens, UniProt P00533, DEL746-750/T790M); assay: Inhibition of EGFR Exon19Del/T790M biochemical enzymatic activity (HTRF); conditions: EGFR Del19-T790M, 1 mM ATP, 1 h, room temperature, read-out: IC50 (nM) @Del19-T790M
T8 construct: purchased Carna Bio
T8 sequence (P00533 with tags, fused parts or gaps DEL746-750/T790M limits assumed): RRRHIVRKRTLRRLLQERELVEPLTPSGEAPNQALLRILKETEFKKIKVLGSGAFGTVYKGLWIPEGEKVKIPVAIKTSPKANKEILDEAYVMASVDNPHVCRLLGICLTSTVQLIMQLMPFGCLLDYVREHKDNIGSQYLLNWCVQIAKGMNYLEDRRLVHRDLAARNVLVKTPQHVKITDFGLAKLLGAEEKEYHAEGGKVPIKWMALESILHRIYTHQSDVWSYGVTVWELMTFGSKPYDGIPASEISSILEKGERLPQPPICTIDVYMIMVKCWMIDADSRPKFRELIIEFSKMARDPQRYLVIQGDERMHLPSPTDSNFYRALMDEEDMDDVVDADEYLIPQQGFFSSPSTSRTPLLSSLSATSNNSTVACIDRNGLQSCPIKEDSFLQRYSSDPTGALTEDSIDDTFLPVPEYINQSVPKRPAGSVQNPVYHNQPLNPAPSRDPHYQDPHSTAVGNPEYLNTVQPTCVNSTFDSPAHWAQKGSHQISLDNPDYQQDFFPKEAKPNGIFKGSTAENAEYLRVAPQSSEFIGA
Procedure, shortened: as §2

EGFR L858R = target: T9, EGFR L858R (Homo sapiens, UniProt P00533, L858R); assay: Inhibition of EGFR L858R biochemical enzymatic activity (HTRF); conditions: 1 mM ATP, 1 h, room temperature, read-out: IC50 (nM) @L858R
T9 construct: purchased Carna Bio
T9 sequence (P00533 25-1210 L858R): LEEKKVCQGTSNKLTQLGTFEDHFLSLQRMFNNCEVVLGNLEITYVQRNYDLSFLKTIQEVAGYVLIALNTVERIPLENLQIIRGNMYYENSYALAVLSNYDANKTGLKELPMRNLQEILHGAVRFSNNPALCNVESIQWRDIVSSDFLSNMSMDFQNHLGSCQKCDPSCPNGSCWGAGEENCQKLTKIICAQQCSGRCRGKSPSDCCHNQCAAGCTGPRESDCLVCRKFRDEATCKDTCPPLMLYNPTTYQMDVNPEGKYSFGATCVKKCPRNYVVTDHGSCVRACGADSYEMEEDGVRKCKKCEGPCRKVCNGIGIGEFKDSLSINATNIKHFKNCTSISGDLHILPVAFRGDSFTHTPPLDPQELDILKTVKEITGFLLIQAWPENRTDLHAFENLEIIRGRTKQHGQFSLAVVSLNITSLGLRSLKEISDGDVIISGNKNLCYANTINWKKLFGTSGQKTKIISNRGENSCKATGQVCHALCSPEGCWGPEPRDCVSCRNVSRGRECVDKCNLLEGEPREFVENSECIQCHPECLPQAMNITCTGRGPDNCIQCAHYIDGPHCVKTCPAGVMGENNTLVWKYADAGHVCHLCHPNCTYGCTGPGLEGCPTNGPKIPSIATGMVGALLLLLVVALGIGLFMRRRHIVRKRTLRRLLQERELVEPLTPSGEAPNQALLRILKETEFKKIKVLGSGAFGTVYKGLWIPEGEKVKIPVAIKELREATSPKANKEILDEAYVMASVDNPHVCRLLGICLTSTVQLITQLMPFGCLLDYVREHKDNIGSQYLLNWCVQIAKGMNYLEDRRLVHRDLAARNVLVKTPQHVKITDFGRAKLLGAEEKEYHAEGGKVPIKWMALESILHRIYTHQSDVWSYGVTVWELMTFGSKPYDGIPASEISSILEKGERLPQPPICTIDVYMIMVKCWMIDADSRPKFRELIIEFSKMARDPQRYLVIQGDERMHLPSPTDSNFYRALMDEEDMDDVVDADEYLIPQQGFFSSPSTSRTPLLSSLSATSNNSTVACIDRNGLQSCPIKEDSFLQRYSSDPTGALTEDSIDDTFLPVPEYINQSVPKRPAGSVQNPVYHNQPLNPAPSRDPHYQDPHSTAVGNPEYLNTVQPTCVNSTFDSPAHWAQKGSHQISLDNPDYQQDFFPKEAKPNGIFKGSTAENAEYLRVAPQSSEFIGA
Procedure, shortened: as §2

A-431 = assay: Cell proliferation GI50, A-431 cells (Table 6); type: cell-based
[3] = Mus musculus, BaF3, 72 h, BaF3 cells, EGFR DEL19-C797S, read-out: DEL19-C797S/BaF3 GI50
[4] = Mus musculus, BaF3, 72 h, BaF3 cells, EGFR DEL19-T790-C797S, read-out: DEL19-T790-C797S/BaF3 GI50
[5] = Mus musculus, BaF3, 72 h, BaF3 cells, EGFR L858R, read-out: L858R/BaF3 GI50
[6] = Mus musculus, BaF3, 72 h, BaF3 cells, EGFR L858R-C797S, read-out: L858R-C797S/BaF3 GI50
[7] = Mus musculus, BaF3, 72 h, BaF3 cells, EGFR L858R-T790-C797S, read-out: L858R-T790-C797S/BaF3 GI50
[8] = Mus musculus, BaF3, 72 h, BaF3 cells, EGFR L858R-T790M, read-out: L858R-T790M/BaF3 GI50
[9] = Mus musculus, BaF3, 72 h, EGFR DEL19-T790M, read-out: DEL19-T790M GI50
[10] = Homo sapiens, A-431, A-431 cells
[11] = BaF3 cells, EGFR DEL19-C797S, read-out: DEL19-C797S/BaF3 GI50
[12] = BaF3 cells, EGFR DEL19-T790-C797S, read-out: DEL19-T790-C797S/BaF3 GI50
[13] = BaF3 cells, EGFR L858R, read-out: L858R/BaF3 GI50
[14] = BaF3 cells, EGFR L858R-C797S, read-out: L858R-C797S/BaF3 GI50
[15] = BaF3 cells, EGFR L858R-T790-C797S, read-out: L858R-T790-C797S/BaF3 GI50
[16] = BaF3 cells, EGFR L858R-T790M, read-out: L858R-T790M/BaF3 GI50
[17] = EGFR DEL19-T790M, read-out: DEL19-T790M GI50

Compound | GI50 [1, 3] [nM] | GI50 [1, 4] [nM] | GI50 [1, 5] [nM] | GI50 [1, 6] [nM] | GI50 [1, 7] [nM] | GI50 [1, 8] [nM] | GI50 [1, 9] [nM] | IC50 (EGFR L858R/T790M) [nM] | GI50 (PC-9; Homo sapiens, PC-9, 72 h) [nM] | IC50 (EGFR wild type) [nM] | IC50 (EGFR[T790M/C797S/L858R]) [nM] | IC50 (EGFR Exon19Del) [nM] | IC50 (EGFR (C797S L858R)) [nM] | IC50 (EGFR (d746-750 C797S)) [nM] | IC50 [2] [nM] | IC50 (EGFR Exon19Del/T790M) [nM] | IC50 (EGFR L858R) [nM] | GI50 (A-431; [10]) [nM] | GI50 [1, 11] [nM] | GI50 [1, 12] [nM] | other results
Cn1ncc2c1OCCN(CC(F)(F)F)CCn1c(nc3ccccc31)NC(=O)c1cc-2c(=O)n(C)c1 [Example A1, 5,26-Dimethyl-10-(2,2,2-trifluoroethyl)-7-oxa-4,5,10,13,20,22,26-heptaazapentacyclo[22.3.1.0^{2,6}.0^{13,21}.0^{14,19}]octacosa-1(28),2(6),3,14,16,18,20,24-octaene-23,27-dione] | 22 | 170 | 6.1 | 21 | 27 | 60 | 114 | 120 | 68 | 3550 | 121 | 81 | 120 | 53 | 26 | 47 | 197 | 3570 | – | – | –
CN1CCN(c2ccc3nc4n(c3c2)C23CCC(CN(CCOc5c(cnn5C)-c5cc(cn(C)c5=O)C(=O)N4)C2)C3)CC1 (single isomer, unassigned) [Example A63B] | – | – | – | – | – | – | – | 0.92 | – | 8 | 0.96 | 0.86 | 1.1 | 0.51 | 1.1 | 0.94 | 1.6 | – | 0.67 | 1.4 | GI50 [1, 13]: 1.1 nM; GI50 [1, 14]: 3.1 nM; GI50 [1, 15]: 1.3 nM; GI50 [1, 16]: 8.6 nM; GI50 [1, 17]: 1.9 nM; GI50 (PC-9): 5 nM; GI50 (A-431; A-431 cells): 620 nM
CN1CCN(c2ccc3nc4n(c3c2)C23CCC(CC2)CN(CCOc2c(cnn2C)-c2cc(cn(C)c2=O)C(=O)N4)C3)CC1 [Example A75, 15,21-Dimethyl-5-(4-methylpiperazin-1-yl)-23-oxa-2,9,11,15,20,21,26-heptaazaheptacyclo[26.2.2.1^{1,26}.1^{13,17}.0^{2,10}.0^{3,8}.0^{18,22}]tetratriaconta-3,5,7,9,13,17(34),18(22),19-octaene-12,16-dione] | 2.5 | 27 | 21 | 21 | 35 | 69 | 20 | 6 | 44 | 672 | 8 | 3.3 | 35 | 2.8 | 3.4 | 3.8 | 44 | 5420 | – | – | –
CN1CCCC12CN(c1ccc3nc4n(c3c1)C13CCC(CN(CCOc5c(cnn5C)-c5cc(cn(C)c5=O)C(=O)N4)C1)C3)C2 (single isomer, unassigned) [Example A76A] | – | – | – | – | – | – | – | > 5000 | – | > 5000 | > 5000 | 450 | 4300 | 503 | 4860 | > 5000 | 2860 | – | 272 | 564 | GI50 [1, 13]: 536 nM; GI50 [1, 14]: 304 nM; GI50 [1, 15]: 980 nM; GI50 [1, 16]: 942 nM; GI50 [1, 17]: 584 nM; GI50 (PC-9): 810 nM; GI50 (A-431; A-431 cells): 7930 nM
CN1CC2CC1CN2c1ccc2nc3n(c2c1)C12CCC(CN(CCOc4c(cnn4C)-c4cc(cn(C)c4=O)C(=O)N3)C1)C2 (single isomer, unassigned) [Example A105B] | – | – | – | – | – | – | – | 1.8 | – | 110 | 1.5 | 1.6 | 3.8 | 1 | 1.7 | 2.2 | 7.3 | 354 | 0.76 | 3.5 | GI50 [1, 13]: 7.9 nM; GI50 [1, 14]: 3.8 nM; GI50 [1, 15]: 7 nM; GI50 [1, 16]: 15 nM; GI50 [1, 17]: 4.9 nM; GI50 (PC-9): 13 nM
C[C@@H]1CCCOc2c(cnn2C)-c2cc(cn(C)c2=O)C(=O)Nc2nc3ccc(N4CCC(N(C)C)C4)cc3n2C1 (stereo partly drawn) [Example A27, (11R)-16-[3-(Dimethylamino)pyrrolidin-1-yl]-5,11,26-trimethyl-7-oxa-4,5,13,20,22,26-hexaazapentacyclo[22.3.1.0^{2,6}.0^{13,21}.0^{14,19}]octacosa-1(28),2(6),3,14,16,18,20,24-octaene-23,27-dione] | 1.2 | 1.9 | 3 | 7.1 | 2.2 | 6.8 | 3.5 | 26 | 21 | 290 | 20 | 6.1 | 21 | 5.5 | 13 | 15 | 25 | 453 | – | – | –
CN1CCCC12CN(c1ccc3nc4n(c3c1)C13CCC(CN(CCOc5c(cnn5C)-c5cc(cn(C)c5=O)C(=O)N4)C1)C3)C2 (single isomer, unassigned) [Example A76B] | – | – | – | – | – | – | – | 7 | – | 206 | 6.9 | 4.2 | 27 | 3.5 | 4.4 | 4.9 | 39 | – | 0.78 | 12 | GI50 [1, 13]: 13 nM; GI50 [1, 14]: 7.6 nM; GI50 [1, 15]: 34 nM; GI50 [1, 16]: 39 nM; GI50 [1, 17]: 12 nM; GI50 (PC-9): 23 nM; GI50 (A-431; A-431 cells): 1640 nM
C[C@@H]1CCCOc2c(cnn2C)-c2cc(cn(C)c2=O)C(=O)Nc2nc3ccc(N4CCOCC4)cc3n2C1 [Example A26, (11R) 5,11,26-trimethyl-16-(morpholin-4-yl)-7-oxa-4,5,13,20,22,26-hexaazapentacyclo[22.3.1.0^{2,6}.0^{13,21}.0^{14,19}]octacosa-1(28),2(6),3,14,16,18,20,24-octaene-23,27-dione] | 2.1 | 16 | 18 | 4.6 | 12 | 28 | 18 | 19 | 18 | 1090 | 16 | 8 | 33 | 2.9 | 5.6 | 5 | 68 | 405 | – | – | –
